The record followed here is patent US8853392B2, “Benzamide mGluR5 positive allosteric modulators and methods of making and using same” (Vanderbilt University, priority 2007, dated 2014).

Read-outs that look alike come from different tables or passages of the source.

The target of this experiment is T1, rat mGluR5 (Rattus norvegicus, UniProt P31424).
T1 construct: expressed in transfected cells; host or cells: human embryonic kidney (HEK) cells
The experiment can be described thus: potentiation of mGluR5 response to glutamate, Ca2+ fluorescence (FDSS) in HEK cells transfected with rat mGluR5. Type of experiment: cell-based. The note with it: for EC50: read-out: EC50. As to the method: Human embryonic kidney (HEK) cells transfected with rat mGluR5 were plated in clear bottom assay plates for assay in a Functional Drug Screening System (FDSS). The cells were loaded with a Ca^2+-sensitive fluorescent dye (e.g., Fluo-4), and the plates were washed and placed in the FDSS instrument. After establishment of a fluorescence baseline for twelve seconds, the compounds of the present invention were added to the cells, and the response in cells was measured. Five minutes later, an mGluR5 agonist (e.g., glutamate, 3,5-dihydroxyphenylglycine, or quisqualate) was added to the cells, and the response of the cells was measured. Potentiation of the agonist response of mGluR5 by the compounds in the present invention was observed as an increase in response to non-maximal concentrations of agonist (here, glutamate) in the presence of compound compared to the response to agonist in the absence of compound.
The above described assay operated in two modes. In the first mode, a range of concentrations of the present compounds were added to cells, followed by a single fixed concentration of agonist. If a compound acted as a potentiator, an EC50 value for potentiation and a maximum extent of potentiation by the compound at this concentration of agonist was determined by non-linear curve fitting. In the second mode, several fixed concentrations of the present compounds were added to various wells on a plate, followed by a range of concentrations of agonist for each concentration of present compound; the EC50 values for the agonist at each concentration of compound were determined by non-linear curve fitting. A decrease in the EC50 value of the agonist with increasing concentrations of the present compounds (a leftward shift of the agonist concentration-response curve) is an indication of the degree of mGluR5 potentiation at a given concentration of the present compound. An increase in the EC50 value of the agonist with increasing concentrations of the present compounds (a rightward shift of the agonist concentration-response curve) is an indication of the degree of mGluR5 antagonism at a given concentration of the present compound. The second mode also indicates whether the present compounds also affect the maximum response to mGluR5 to agonists.
Human embryonic kidney (HEK) cells transfected with rat mGluR5 were plated in clear-bottomed, poly-D-lysine-coated assay plates in glutamate-glutamine-free medium growth and incubated overnight at 37° C. in 5% CO2. The following day, cells were loaded with 2 μM calcium indicator dye, fluo-4 AM, for 1 h at 37° C. Dye was removed and replaced with assay buffer containing 1× Hanks balanced salt solution (Invitrogen, Carlsbad, Calif.), 20 mM HEPES, and 2.5 mM probenecid, pH 7.4. Cell plates were then loaded into the Functional Drug Screening System 6000 (FDSS 6000, Hamamatsu, Japan). After establishment of a fluorescence baseline for twelve seconds, the compounds of the present invention were added to the cells, and the response in cells was measured. Five minutes later, an mGluR5 agonist (e.g., glutamate, 3,5-dihydroxyphenylglycine, or quisqualate) was added to the cells, and the response of the cells was measured during a 1 minute incubation with agonists. Typically, the effect of test compounds of the present invention was on an EC20 concentration of glutamate was measured. All test compounds were dissolved and diluted in 100% DMSO and then serially diluted into assay buffer for a 2.5× stock in 0.25% DMSO; stock compounds were then added to the assay for a final DMSO concentration of 0.1%. Calcium fluorescence measures were recorded as fold over basal fluorescence; raw data was then normalized to the maximal response to agonist. Potentiation of the agonist response of mGluR5 by the compounds in the present invention was observed as an increase in response to non-maximal concentrations of agonist (here, glutamate) in the presence of compound compared to the response to agonist in the absence of compound. […]

Setting [1] is: Table 1, EC50 for potentiating the mGluR5 receptor, unit inferred.
Where [2] appears, read: HEK293, read-out: % Glu Max, maximum extent of potentiation, normalized to maximal response to glutamate, SAR tables.
The mark [3] stands for this setting: potentiation of glutamate response, HEK cells transfected with rat mGluR5, SAR tables.
The mark [4] stands for this setting: HEK293, maximum extent of potentiation, normalized to maximal response to glutamate, SAR tables, read-out: % Glu Max.

T1 sequence (P31424 21-1203): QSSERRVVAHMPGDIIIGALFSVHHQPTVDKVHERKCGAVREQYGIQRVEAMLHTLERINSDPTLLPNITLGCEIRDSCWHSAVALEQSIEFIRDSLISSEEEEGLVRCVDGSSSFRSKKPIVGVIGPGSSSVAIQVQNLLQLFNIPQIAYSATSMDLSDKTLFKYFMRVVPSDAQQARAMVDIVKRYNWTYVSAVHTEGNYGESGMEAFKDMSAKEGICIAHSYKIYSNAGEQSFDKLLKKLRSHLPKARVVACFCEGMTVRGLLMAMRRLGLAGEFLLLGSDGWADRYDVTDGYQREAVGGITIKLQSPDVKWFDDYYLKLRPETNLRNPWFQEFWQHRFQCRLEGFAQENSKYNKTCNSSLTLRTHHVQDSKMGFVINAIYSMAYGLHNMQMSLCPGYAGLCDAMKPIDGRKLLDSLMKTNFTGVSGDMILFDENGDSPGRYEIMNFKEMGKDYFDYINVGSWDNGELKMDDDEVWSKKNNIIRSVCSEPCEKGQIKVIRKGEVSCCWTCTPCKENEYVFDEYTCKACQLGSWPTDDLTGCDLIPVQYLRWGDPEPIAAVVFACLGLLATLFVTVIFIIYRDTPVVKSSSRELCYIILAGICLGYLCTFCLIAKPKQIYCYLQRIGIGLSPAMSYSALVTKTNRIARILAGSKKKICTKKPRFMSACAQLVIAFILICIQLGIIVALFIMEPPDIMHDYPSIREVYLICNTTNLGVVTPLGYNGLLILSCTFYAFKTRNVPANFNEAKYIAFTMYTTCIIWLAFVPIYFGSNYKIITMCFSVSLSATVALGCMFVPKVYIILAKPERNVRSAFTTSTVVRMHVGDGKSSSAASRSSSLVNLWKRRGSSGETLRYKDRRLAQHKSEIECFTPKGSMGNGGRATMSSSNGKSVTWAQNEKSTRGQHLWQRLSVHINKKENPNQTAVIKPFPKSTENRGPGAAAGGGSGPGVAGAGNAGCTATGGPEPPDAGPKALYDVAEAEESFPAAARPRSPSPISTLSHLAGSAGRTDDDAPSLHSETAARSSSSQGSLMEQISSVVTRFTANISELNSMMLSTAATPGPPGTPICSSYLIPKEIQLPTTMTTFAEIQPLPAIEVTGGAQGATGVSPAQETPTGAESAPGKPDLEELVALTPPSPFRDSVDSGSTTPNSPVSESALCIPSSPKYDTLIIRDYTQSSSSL

In the case of `CCN1CCC[C@H]1CNC(=O)c1ccc(C#Cc2ccccc2)cc1` [(S)-N-((1-ethylpyrrolidin-2-yl)methyl)-4-(phenylethynyl)benzamide], the concentration for a half-maximal effect (EC50) under setting [1] came out at 1030 nM.
With `O=C(c1ccc(C#Cc2ccccc2)cc1)N1CCC2CCCCC2C1` (stereo not drawn) [(octahydroisoquinolin-2(1H)-yl)(4-(phenylethynyl)phenyl)methanone], the EC50 under setting [1] was determined as 593 nM.
Turning to `CC1(O)CCN(C(=O)c2ccc(C#Cc3ccccc3)cc2)CC1` [Compound 7a, (4-hydroxy-4-methylpiperidin-1-yl)(4-(phenylethynyl)phenyl)methanone], the Emax under setting [2] came out at 82.5%. For the same molecule, the EC50 turned out to be 39.4 nM under setting [1] and 3.5 nM under setting [3].
Consider `CC(C)C1(O)CCN(C(=O)c2ccc(C#Cc3ccccc3)cc2)CC1` [Compound 7c, (4-hydroxy-4-isopropylpiperidin-1-yl)(4-(phenylethynyl)phenyl)methanone], for which the Emax under setting [2] turned out to be 89.1%. Besides, the EC50 under setting [1] was 1800 nM and the EC50 under setting [3] worked out at 1770 nM.
`O=C(c1ccc(C#Cc2ccccc2)cc1)N1CCC(O)(c2cccs2)CC1` [Compound 7d, (4-hydroxy-4-(thiophen-2-yl)piperidin-1-yl)(4-(phenylethynyl)phenyl)methanone]: the Emax under setting [2] was determined as 95%. The EC50 by setting is: under setting [1], 1070 nM; under setting [3], 1000 nM.
As for `O=C(c1ccc(C#Cc2ccccc2)cc1)N1CCC(O)(c2ccc(F)cc2)CC1` [Compound 7e], the Emax under setting [2] came to 87%. In addition, the EC50 under setting [3] was 1190 nM.
Taken in the same sequence, the figures for `O=C(c1ccc(C#Cc2ccccc2)cc1)N1CCC(O)(c2cccc(F)c2)CC1` [Compound 7f] were 92% and 1600 nM.
As for `COc1ccc(C2(O)CCN(C(=O)c3ccc(C#Cc4ccccc4)cc3)CC2)cc1` [Compound 7g], the Emax under setting [2] is 91%. The EC50 under setting [3] amounted to 2450 nM.
On to `O=C(c1ccc(C#Cc2ccccc2)cc1)N1CC(O)C1` [Compound 9a, (3-hydroxyazetidin-1-yl)(4-(phenylethynyl)phenyl)methanone], for which the Emax under setting [4] stood at 67.3%. For the same molecule, the EC50 is, setting by setting: under setting [1], 314 nM; under setting [3], 212 nM.
As to `CC1(O)CN(C(=O)c2ccc(C#Cc3ccccc3)cc2)C1` [Compound 9b, (3-hydroxy-3-methylazetidin-1-yl)(4-(phenylethynyl)phenyl)methanone], the Emax under setting [4] worked out at 82%. Moreover, the EC50 was determined as 119 nM under setting [1] and 89 nM under setting [3].
Taken in the same sequence, the figures for `CCCC1(O)CN(C(=O)c2ccc(C#Cc3ccccc3)cc2)C1` [Compound 9c, (3-hydroxy-3-propylazetidin-1-yl)(4-(phenylethynyl)phenyl)methanone] were 59.8%, 500 nM and 423 nM.
The matching figures for `O=C(c1ccc(C#Cc2ccccc2)cc1)N1CC(O)(c2cccs2)C1` [Compound 9d, (3-hydroxy-3-(thiophen-2-yl)azetidin-1-yl)(4-(phenylethynyl)phenyl)methanone]: 43.7%, 1710 nM and 1470 nM.
Take `O=C(c1ccc(C#Cc2ccccc2F)cc1)N1CCC(O)CC1` [Compound 19a, (4-((2-fluorophenyl)ethynyl)phenyl)(4-hydroxypiperidin-1-yl)methanone]: the Emax under setting [4] came to 80%. Further, the EC50 reads like this: under setting [1], 28.1 nM; under setting [3], 27.3 nM.
For the molecule `O=C(c1ccc(C#Cc2cccc(F)c2)cc1)N1CCC(O)CC1` [Compound 19b, (4-((3-fluorophenyl)ethynyl)phenyl)(4-hydroxypiperidin-1-yl)methanone], under setting [4], the Emax was found to be 77%. In addition, the EC50 reads like this: under setting [1], 3.25 nM; under setting [3], 3.25 nM.
`O=C(c1ccc(C#Cc2ccc(F)cc2)cc1)N1CCC(O)CC1` [Compound 19c, (4-((4-fluorophenyl)ethynyl)phenyl)(4-hydroxypiperidin-1-yl)methanone]: the Emax under setting [4] was 63%. Further, the EC50 runs as follows: under setting [1], 15.2 nM; under setting [3], 14.7 nM.
The matching figures for `O=C(c1ccc(C#Cc2ccc(F)c(F)c2)cc1)N1CCC(O)CC1` [Compound 19d, (4-((3,4-difluorophenyl)ethynyl)phenyl)(4-hydroxypiperidin-1-yl)methanone]: 52%, 73.9 nM and 68.7 nM.
In the case of `O=C(c1ccc(C#Cc2cc(F)cc(F)c2)cc1)N1CCC(O)CC1` [Compound 19e, (4-((3,5-difluorophenyl)ethynyl)phenyl)(4-hydroxypiperidin-1-yl)methanone], the Emax under setting [4] was found to be 67%. Also, the EC50 was 1000 nM under setting [1] and 593 nM under setting [3].
As for `Cc1cc(C#Cc2ccc(C(=O)N3CCC(O)CC3)cc2)ccc1F` [Compound 19f, (4-((4-fluoro-3-methylphenyl)ethynyl)phenyl)(4-hydroxypiperidin-1-yl)methanone], under setting [4], the Emax was 76%. The EC50 under setting [1] is 832 nM and the EC50 under setting [3] was determined as 500 nM.
The matching figures for `O=C(c1ccc(C#Cc2ccc(F)cc2F)cc1)N1CCC(O)CC1` [Compound 19g, (4-((2,4-difluorophenyl)ethynyl)phenyl)(4-hydroxypiperidin-1-yl)methanone]: 58%, 2030 nM and 1970 nM.
For the molecule `Cc1ccc(C#Cc2ccc(C(=O)N3CCC(O)CC3)cc2)cc1` [Compound 19h], the “EC50 (nM)” value under setting [3] was “inactive”.
Regarding `O=C(c1ccc(C#Cc2cccc(C(F)(F)F)c2)cc1)N1CCC(O)CC1` [Compound 19i, (4-hydroxypiperidin-1-yl)(4-((3-(trifluoromethyl)phenyl)ethynyl)phenyl)methanone], the Emax under setting [4] was 68%. In addition, the EC50 by setting is: under setting [1], 2210 nM; under setting [3], 2060 nM.
The matching figures for `O=C(c1ccc(C#Cc2ccccn2)cc1)N1CCC(O)CC1` [Compound 19k]: 49%, 2450 nM and 2210 nM.
Taken in the same sequence, the figures for `O=C(c1ccc(C#CC2CCCCC2)cc1)N1CCC(O)CC1` [Compound 19m, (4-(cyclohexylethynyl)phenyl)(4-hydroxypiperidin-1-yl)methanone] were 77%, 1870 nM and 1790 nM.
The matching figures for `CC1(O)CCN(C(=O)c2ccc(C#Cc3ccccc3F)cc2)CC1` [Compound 20a, (4-((2-fluorophenyl)ethynyl)phenyl)(4-hydroxy-4-methylpiperidin-1-yl)methanone]: 86%, 37.9 nM and 34.9 nM.
Regarding `CC1(O)CCN(C(=O)c2ccc(C#Cc3cccc(F)c3)cc2)CC1` [Compound 20b, (4-((3-fluorophenyl)ethynyl)phenyl)(4-hydroxy-4-methylpiperidin-1-yl)methanone], under setting [4], the Emax was 92%. For the same molecule, the concentration giving a half-maximal response (EC50) was found to be 20.6 nM under setting [1] and 19.4 nM under setting [3].
Taken in the same sequence, the figures for `CC1(O)CCN(C(=O)c2ccc(C#Cc3ccc(F)cc3)cc2)CC1` [Compound 20c, (4-((4-fluorophenyl)ethynyl)phenyl)(4-hydroxy-4-methylpiperidin-1-yl)methanone] were 91%, 54.2 nM and 39.4 nM.
Taken in the same sequence, the figures for `CC1(O)CCN(C(=O)c2ccc(C#Cc3ccc(F)c(F)c3)cc2)CC1` [Compound 20d, (4-((3,4-difluorophenyl)ethynyl)phenyl)(4-hydroxy-4-methylpiperidin-1-yl)methanone] were 91%, 156 nM and 137 nM.
